Each block holds one molecule with its values, some of them ahead of it.
Columns and labels:
[1] = target: T1, Inhibitor of nuclear factor kappa-B kinase subunit alpha (Homo sapiens) (UniProt O15111); assay: Inhibition of human recombinant IKKa at 500 nM in presence of ATP by radiometric assay relative to control
T1 sequence (whole entry): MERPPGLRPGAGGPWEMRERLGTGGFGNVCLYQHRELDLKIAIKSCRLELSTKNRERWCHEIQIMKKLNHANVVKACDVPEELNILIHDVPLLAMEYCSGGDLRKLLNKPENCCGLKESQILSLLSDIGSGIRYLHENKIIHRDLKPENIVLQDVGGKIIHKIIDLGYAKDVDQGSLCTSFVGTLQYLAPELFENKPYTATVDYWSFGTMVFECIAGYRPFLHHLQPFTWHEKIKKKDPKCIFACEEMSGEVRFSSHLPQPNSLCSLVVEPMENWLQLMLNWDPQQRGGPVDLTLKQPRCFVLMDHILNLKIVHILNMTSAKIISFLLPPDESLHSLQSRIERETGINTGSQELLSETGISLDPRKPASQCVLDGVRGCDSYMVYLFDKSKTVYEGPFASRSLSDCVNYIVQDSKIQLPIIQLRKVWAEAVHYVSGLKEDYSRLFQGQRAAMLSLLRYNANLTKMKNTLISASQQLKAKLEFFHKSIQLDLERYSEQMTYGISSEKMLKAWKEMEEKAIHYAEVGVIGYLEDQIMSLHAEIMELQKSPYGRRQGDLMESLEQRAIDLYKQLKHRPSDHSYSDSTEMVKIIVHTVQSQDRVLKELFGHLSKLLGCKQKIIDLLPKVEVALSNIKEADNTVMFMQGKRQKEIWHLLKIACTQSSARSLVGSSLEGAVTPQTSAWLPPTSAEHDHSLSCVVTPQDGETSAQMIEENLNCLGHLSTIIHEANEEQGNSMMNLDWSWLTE

[2] = target: Hepatocyte growth factor receptor (Homo sapiens) (UniProt P08581); assay: Inhibition of human recombinant MET at 500 nM in presence of ATP by radiometric assay relative to control
Sequence of Hepatocyte growth factor receptor (Homo sapiens) (P08581 whole entry, looked up): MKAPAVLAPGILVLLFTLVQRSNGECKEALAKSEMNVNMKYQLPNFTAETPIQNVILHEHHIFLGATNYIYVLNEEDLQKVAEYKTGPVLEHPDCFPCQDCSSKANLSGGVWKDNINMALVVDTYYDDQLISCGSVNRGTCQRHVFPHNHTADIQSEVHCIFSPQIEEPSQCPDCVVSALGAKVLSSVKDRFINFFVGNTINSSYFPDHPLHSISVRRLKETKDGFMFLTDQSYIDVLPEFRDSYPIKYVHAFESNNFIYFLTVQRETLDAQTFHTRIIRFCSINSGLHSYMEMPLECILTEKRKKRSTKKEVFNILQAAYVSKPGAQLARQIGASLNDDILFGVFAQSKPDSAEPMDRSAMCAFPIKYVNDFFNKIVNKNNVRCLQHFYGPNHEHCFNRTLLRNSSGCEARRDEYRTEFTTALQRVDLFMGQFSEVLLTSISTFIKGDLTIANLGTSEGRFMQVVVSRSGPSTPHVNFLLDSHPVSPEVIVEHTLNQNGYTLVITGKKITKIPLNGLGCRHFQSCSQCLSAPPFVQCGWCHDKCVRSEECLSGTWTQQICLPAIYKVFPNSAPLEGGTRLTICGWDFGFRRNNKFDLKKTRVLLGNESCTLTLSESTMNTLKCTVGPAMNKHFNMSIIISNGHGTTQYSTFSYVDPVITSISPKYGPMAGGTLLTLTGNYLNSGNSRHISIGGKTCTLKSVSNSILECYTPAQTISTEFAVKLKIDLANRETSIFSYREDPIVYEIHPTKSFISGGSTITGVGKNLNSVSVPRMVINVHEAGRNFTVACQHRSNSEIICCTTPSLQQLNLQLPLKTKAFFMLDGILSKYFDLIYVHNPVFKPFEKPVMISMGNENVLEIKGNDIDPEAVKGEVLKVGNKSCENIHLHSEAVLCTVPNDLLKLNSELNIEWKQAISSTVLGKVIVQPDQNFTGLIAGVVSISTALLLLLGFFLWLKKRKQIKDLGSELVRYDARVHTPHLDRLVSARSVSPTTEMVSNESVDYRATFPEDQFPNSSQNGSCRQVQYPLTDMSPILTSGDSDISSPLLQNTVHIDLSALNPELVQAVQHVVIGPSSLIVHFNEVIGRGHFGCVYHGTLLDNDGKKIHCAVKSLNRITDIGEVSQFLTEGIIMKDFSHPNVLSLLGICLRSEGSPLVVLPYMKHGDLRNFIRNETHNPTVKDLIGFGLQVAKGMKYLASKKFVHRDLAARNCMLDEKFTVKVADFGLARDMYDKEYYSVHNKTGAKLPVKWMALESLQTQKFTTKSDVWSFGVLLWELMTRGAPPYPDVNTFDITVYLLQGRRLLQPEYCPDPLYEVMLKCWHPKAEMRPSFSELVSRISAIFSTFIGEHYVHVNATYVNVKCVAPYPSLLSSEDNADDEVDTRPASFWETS

[3] = target: T2, Serine/threonine-protein kinase ULK2 (Homo sapiens) (UniProt Q8IYT8); assay: Inhibition of human recombinant ULK2 at 500 nM related to control ULK1
T2 sequence (whole entry): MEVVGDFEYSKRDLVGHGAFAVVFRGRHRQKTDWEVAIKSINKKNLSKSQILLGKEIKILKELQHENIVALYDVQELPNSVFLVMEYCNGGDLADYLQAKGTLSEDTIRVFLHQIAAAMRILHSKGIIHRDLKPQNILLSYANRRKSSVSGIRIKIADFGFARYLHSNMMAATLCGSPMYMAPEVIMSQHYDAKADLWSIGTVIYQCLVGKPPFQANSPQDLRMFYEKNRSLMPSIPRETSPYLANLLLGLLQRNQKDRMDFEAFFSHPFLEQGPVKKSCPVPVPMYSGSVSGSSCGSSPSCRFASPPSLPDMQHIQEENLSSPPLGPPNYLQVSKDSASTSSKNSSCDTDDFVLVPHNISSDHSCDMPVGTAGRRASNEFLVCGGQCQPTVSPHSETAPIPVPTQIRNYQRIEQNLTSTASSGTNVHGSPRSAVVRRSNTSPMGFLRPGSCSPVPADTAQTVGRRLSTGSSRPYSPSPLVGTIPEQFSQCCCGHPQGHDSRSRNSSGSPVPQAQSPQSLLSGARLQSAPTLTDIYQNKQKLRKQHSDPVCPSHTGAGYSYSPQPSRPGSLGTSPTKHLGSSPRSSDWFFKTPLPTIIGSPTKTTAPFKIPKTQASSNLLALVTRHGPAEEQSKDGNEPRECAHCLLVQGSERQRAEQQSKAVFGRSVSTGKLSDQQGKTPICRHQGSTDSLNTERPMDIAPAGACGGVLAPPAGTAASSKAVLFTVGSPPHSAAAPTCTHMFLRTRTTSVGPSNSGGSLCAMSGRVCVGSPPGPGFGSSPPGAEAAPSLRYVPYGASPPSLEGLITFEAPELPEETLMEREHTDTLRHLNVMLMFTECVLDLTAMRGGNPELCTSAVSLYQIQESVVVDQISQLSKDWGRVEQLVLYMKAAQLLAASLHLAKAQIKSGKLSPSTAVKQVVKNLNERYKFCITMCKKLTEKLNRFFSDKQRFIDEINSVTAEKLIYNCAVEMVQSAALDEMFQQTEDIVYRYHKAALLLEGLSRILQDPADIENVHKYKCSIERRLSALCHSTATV

[4] = target: Rho-associated protein kinase 2 (Homo sapiens) (UniProt O75116); assay: Inhibition of human recombinant ROCK2 at 15 nM in presence of ATP by radiometric assay relative to control
Sequence of Rho-associated protein kinase 2 (Homo sapiens) (O75116 whole entry, looked up): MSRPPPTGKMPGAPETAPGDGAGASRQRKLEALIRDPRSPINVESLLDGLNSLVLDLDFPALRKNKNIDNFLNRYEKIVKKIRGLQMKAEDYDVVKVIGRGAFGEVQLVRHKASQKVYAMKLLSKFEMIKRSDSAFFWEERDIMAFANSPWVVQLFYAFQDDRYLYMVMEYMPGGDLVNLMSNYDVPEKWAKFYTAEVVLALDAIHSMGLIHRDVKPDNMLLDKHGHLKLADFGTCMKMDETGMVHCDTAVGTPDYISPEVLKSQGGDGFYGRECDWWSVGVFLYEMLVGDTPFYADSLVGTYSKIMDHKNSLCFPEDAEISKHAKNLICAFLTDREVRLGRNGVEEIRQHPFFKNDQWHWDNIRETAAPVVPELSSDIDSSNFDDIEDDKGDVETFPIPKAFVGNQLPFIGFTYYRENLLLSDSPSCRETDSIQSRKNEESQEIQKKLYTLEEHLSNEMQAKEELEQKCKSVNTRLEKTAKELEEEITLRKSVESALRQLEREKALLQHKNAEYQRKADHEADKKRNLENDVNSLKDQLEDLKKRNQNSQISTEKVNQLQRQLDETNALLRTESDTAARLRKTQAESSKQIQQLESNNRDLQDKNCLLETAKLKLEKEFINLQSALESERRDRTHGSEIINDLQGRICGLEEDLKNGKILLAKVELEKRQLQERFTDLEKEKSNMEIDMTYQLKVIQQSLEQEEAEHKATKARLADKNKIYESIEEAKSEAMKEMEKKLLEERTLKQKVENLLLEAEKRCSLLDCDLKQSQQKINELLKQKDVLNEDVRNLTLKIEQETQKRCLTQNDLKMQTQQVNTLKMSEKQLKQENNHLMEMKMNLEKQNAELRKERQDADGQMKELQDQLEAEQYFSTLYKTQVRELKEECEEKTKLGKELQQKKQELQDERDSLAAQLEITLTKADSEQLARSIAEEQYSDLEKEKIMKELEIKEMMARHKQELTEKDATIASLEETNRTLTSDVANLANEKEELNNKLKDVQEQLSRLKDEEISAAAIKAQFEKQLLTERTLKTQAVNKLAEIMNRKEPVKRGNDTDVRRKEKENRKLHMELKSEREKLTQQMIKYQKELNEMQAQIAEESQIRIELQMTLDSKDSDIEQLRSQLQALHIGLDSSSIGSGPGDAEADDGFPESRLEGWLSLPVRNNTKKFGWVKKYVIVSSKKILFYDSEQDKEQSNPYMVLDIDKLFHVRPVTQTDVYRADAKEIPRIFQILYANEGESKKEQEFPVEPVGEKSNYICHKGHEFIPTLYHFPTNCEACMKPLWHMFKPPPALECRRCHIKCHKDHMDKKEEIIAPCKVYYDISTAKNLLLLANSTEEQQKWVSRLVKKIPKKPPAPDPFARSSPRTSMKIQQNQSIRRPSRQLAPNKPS

[5] = target: T3, Testis-specific serine/threonine-protein kinase 2 (Homo sapiens) (UniProt Q96PF2); assay: Inhibition of human recombinant TSSK2 at 15 nM related to control ULK1
T3 sequence (whole entry): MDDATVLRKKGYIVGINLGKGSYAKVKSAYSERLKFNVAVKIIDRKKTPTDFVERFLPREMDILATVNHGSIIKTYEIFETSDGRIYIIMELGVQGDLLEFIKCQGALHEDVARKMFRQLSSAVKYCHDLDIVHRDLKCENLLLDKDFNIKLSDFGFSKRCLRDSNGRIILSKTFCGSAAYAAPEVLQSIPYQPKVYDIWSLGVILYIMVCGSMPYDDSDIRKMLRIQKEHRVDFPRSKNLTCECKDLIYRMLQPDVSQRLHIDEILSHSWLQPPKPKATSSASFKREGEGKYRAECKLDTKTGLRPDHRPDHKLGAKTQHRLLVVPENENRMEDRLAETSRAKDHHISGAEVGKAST

[6] = target: T4, Testis-specific serine/threonine-protein kinase 3 (Homo sapiens) (UniProt Q96PN8); assay: Inhibition of human recombinant TSSK3 at 40 nM related to control ULK1
T4 sequence (whole entry): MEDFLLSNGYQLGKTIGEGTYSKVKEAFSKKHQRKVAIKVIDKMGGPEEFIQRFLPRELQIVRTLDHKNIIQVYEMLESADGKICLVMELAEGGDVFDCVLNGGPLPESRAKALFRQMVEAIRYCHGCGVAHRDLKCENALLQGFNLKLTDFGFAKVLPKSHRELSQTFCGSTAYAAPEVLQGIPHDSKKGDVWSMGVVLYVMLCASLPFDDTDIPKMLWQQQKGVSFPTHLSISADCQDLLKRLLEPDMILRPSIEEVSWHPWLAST

[7] = target: Serine/threonine-protein kinase/endoribonuclease IRE1 (Homo sapiens) (UniProt O75460); assay: Inhibition of human recombinant IRE1 at 40 nM in presence of ATP by radiometric assay relative to control
Sequence of Serine/threonine-protein kinase/endoribonuclease IRE1 (Homo sapiens) (O75460 19-977 limits assumed): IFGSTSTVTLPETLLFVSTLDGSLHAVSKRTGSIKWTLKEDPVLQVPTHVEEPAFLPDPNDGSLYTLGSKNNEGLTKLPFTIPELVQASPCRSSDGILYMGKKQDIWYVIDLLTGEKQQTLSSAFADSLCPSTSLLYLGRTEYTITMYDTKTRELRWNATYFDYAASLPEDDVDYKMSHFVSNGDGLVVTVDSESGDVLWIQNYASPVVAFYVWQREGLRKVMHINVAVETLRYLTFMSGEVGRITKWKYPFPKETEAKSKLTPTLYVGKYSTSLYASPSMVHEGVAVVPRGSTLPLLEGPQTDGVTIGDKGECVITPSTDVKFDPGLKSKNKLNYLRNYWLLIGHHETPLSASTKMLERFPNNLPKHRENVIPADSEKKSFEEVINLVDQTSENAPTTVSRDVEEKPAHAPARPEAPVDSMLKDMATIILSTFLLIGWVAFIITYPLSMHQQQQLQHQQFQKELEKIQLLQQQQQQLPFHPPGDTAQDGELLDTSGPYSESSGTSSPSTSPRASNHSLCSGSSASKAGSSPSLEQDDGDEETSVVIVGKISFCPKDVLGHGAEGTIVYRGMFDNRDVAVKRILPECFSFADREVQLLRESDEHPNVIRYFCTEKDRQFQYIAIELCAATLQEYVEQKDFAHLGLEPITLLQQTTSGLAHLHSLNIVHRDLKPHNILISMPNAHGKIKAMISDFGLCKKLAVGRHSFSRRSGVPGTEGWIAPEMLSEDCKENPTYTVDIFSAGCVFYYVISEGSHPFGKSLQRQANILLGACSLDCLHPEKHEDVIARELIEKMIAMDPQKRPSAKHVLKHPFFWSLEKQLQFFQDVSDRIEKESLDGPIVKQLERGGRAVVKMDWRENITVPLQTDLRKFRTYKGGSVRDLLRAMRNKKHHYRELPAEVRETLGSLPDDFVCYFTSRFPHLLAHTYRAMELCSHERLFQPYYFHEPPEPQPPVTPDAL

inhibition [1]: 2% | inhibition [2]: 32% | fold change (FC) [3]: 0.65
SMILES: CNC(=O)c1ccccc1Oc1nc(Nc2cc(OC)c(OC)c(OC)c2)ncc1Br

inhibition [4]: 0% | fold change (FC) [5]: 0.01
SMILES: CC(C)[C@H](NC(=O)c1cc(-c2cnn3cc(-c4ccc(OCCN5CCCCC5)cc4)cnc23)cs1)C(F)(F)F

fold change (FC) [6]: 0 | inhibition [7]: 0%
SMILES: O=C(N[C@@H](C1CC1)C(F)(F)F)c1cc(-c2cnn3cc(-c4ccc(F)cc4)cnc23)cs1

Reference: ChEMBL document CHEMBL5653631, “A Potent and Selective ULK1 Inhibitor Suppresses Autophagy and Sensitizes Cancer Cells to Nutrient Stress” (iScience, 2018)
